Results reported in US12319913B2, “5-halouracil-modified microRNAs and their use in the treatment of cancer” (The Research Foundation for The State University of New York, priority 2018, dated 2025).

Experiments:
MDC1 and SUZ12 = assay: Western blot of MDC1 and SUZ12 in triple negative breast cancer cells; assay type: cell-based, human
Experimental: (§1) Western immunoblot analysis: Forty-eight hours after transfection, equal amounts of protein (15 μg) extracted from cells lysed in RIPA buffer with protease inhibitor (Sigma) and were separated on 10%-12% sodium dodecyl sulfate-polyacrylamide gels using standard procedures. The primary antibodies used for the analysis were rabbit anti-YAP1 monoclonal antibody (1:10000) (Cell Signaling Technologies), anti-DLCK1 (1:500) (Abcam), anti-BCL2 (1:500) (NeoMarkers), anti-MDC1 (1:500), anti-SUZ12 (1:500), anti-pChk-1 (1:500), anti beta-actin (1:500), anti-BMI-1 (1:10000) (Cell Signaling Technologies), mouse anti-human TS antibody (1:500), anti-α-tubulin (1:50000) (Santa Cruz Biotech Inc.), anti-GAPDH (1:100000) (Santa Cruz Biotech Inc.), anti-E2F3 (1:500) (Santa Cruz Biotech Inc.), Horseradish peroxidase-conjugated antibodies against mouse or rabbit (1:5000, Santa Cruz Biotech Inc.) were used as the secondary antibodies. Protein bands were visualized with autoradiography film using SuperSignal West Pico Chemiluminescent Substrate (Thermo Fischer). Western blot density was quantified using Image J software.

[1] = system: MDA-MB-231 triple negative breast cancer cells; assay: MTT cell proliferation, MDA-MB-231, with or without oligofectamine; assay type: cell-based, human
Experimental: For transfections, 1×10^5 cells were plated in six-well plates and transfected with 100 nM of control non-specific miRNA (Thermo Fischer), a modified microRNA, or exogenous native microRNA after 24 hours using Oligofectamine (Thermo Fischer) following the manufacturer's protocols. For reagent free transfection, cells were plated in 6 well plates at (1×10^5) cells per well. Twenty-four hours later 100 pmol miRNA (Control, miR-15a, Mimic-1) were diluted in Optimem (Thermo Fischer) and added to the plate. Media was changed after 24 hours. Media was supplemented with 10% fetal bovine serum (Thermo Fischer). Briefly, cells were cultured in growth media (DMEM/F12 supplemented with B27, 10 ng/mL bFGF, and 20 ng/mL EGF (Life Technologies) in ultra-low attachment flasks) for up to 6 days. The spheroid cells were maintained by collection through gentle centrifugation, dissociation to single cells and replating.
Furthermore, to test whether or not the modified microRNAs of the present disclosure can be delivered directly to cells and taken up by the cancer cells without the use of transfer agents or vehicles (i.e., oligofectamine), MDA-MB-231 triple negative breast cancer cells were transfected with miR-NC (negative control), exogenous unmodified miR-200b or miR-489, 5-FU-miR-200b or modified miR-489 by using oligofectamine or without delivery vehicle. As shown in FIGS. 17A-17B and 20A, the effects of expression of the exemplary modified miRs tested on breast cancer cell proliferation were monitored by MTT assay for 6 days upon transfection or incubation.

[2] = system: MDA-MB-231 breast cancer cells; assay: Cell cycle analysis, MDA-MB-231 breast cancer cells; assay type: cell-based, human; conditions: compared to native exogenous microRNAs or NC
Experimental: Cell cycle analysis: Twenty-four hours after transfection, cells were harvested and resuspended at 0.5 to 1×10^6 cells/mL in modified Krishan's buffer supplemented with 0.02 mg/mL RNase H and 0.05 mg/mL propidium iodide. Stained cells were detected by flow cytometry and results were analyzed with Modfit LT™ software. The experiments for cell cycle analysis were performed at least three times.

TS-FdUMP = biological target: T1, TS-FdUMP (Homo sapiens, UniProt P04818); assay: Western blot of TS / TS-FdUMP in MDA-MB-231 cells; assay type: cell-based; conditions: breast cancer cells, FIG. 21B
T1 construct: endogenous in cells
T1 sequence (P04818 2-313 limits assumed): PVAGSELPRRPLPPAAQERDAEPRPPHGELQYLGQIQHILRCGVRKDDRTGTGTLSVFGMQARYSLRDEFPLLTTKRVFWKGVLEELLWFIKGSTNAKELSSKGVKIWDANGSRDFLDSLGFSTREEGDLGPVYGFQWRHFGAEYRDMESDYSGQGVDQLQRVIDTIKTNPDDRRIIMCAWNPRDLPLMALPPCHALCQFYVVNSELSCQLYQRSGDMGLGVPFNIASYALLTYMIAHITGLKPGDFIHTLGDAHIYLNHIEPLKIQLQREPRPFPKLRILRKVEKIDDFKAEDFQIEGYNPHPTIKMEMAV
Experimental: as §1

[3] = system: MDA-MB-231 breast cancer cells; assay: Triple negative breast cancer xenograft mouse model (MDA-MB-231, tail vein); assay type: in vivo; conditions: intravenous, every other day for 17 days, vs negative control and native miR-489
Experimental: Modified miR-489 inhibits breast cancer development and progression in vivo. A triple negative breast cancer xenograft mouse model was developed by tail vein injection of MDA-MB-231 breast cancer cells and tumors were developed over time. Mice were then injected with modified miR-489 composition having the nucleotide sequence set forth in SEQ ID NO: 32, exogenous native miR-489, or negative control miRNA by intravenous injection with treatment frequency of one injection every other day for 17 days and mice were euthanized and tumors size was measured using imaging techniques.

CGACGGCAU^FAU^FACACU^FACAGU^FG (CGACGGCAUAUACACUACAGUG; 5-fluorouracil replacing uracils, chemistry not fully specified) [modified miR-489]
MDC1 and SUZ12 protein expression without a transfection reagent (MDC1 and SUZ12; MDA-MB-231, no oligofectamine): inhibits MDC1 and SUZ12 protein expression
MDC1 and SUZ12 protein expression (MDC1 and SUZ12; triple negative breast cancer cells, western blot): further reduction of SUZ12 and MDC1
cell proliferation without delivery vehicle (no oligofectamine) ([1]; MDA-MB-231, MTT assay): effectively reduced cell proliferation
cell proliferation in the presence of oligofectamine ([1]; MDA-MB-231, MTT assay for 6 days, vs miR-NC): dramatically reduced the cell growth from day 3
sub G1 and G1/S ratio [2]: significantly increase
expression of TS protein (TS-FdUMP): reduces the expression, and thus activity of TS protein
tumor size [3]: drastic reduction in tumor size
